Tests used:
[1] = molecular target: PI3Kα (Homo sapiens (Human), UniProt P42336); experiment: PI3Kα inhibition, ATP to ADP conversion by ADP-Glo kinase activity assay; format: biochemical; conditions: 25 μM PIP2:PS, 60 μM ATP, reaction time 30 minutes
Description: Inhibition of PI3Kα—Quantification of ATP to ADP conversion as a measure of PI3Kα activity. Active PI3Kα (Life Technologies), in the presence or absence of PI3Kα inhibitor, was reacted with PIP2:PS (Life Technologies), a substrate specifically optimized for use with Class I PI3 kinases, and ultrapure ATP (Promega). The conversion of ATP to ADP by PI3Kα was measured as luminescence signal via Promega ADP-Glo kinase activity assay. Assay was validated using published PI3Kα inhibitors LY294002, PI-103, BYL719, and GDC0198 as well as a DMSO vehicle control.
Compounds were prepared at 100× final concentration using a 12-point, 1:3 serial-dilution in DMSO, with DMSO control as the 12th point. Compound was then diluted in HEPES buffer (25 mM HEPES pH 7.5, 1 mM EGTA, 0.3% CHAPS) prior to addition to PI3Kα. Active PI3Kα diluted to 0.24 ng/μL (1.1 nM) in (50 mM HEPES pH 7.5, 6 mM MgCl2, 1 mM EGTA, 200 mM NaCl, 0.03% CHAPS, 8 mM DTT) was incubated with compound for 0 hr and 3 hr prior to the start of the reaction. 25 μM PIP2:PS and 60 μM ATP were diluted from stock solution (25 mM HEPES pH 7.5, 1 mM EGTA, 0.3% CHAPS) and added to initiate the PI3Kα reaction. Reaction time was 30 minutes. ATP to ADP conversion was measured in Luminescence Counts on DTX880 Plate Reader (Beckman Coulter). The IC50 of the compounds were reported using the GraphPad Prism software. Analytical method was non-linear regression, 4-parameter curve fit with bottom fit to validated PI3Kα inhibitor reference controls and no top fit (floating top).

[2] = molecular target: PI3KC3 (hVPS34) kinase (Homo sapiens (Human), UniProt Q8NEB9); experiment: PI3KC3 (hVPS34) kinase assay, ADP-Glo luminescence detection; format: biochemical; conditions: PI:PS lipid substrate, 60 min at 30° C., read-out: VPS34 IC50
Sequence of PI3KC3 (hVPS34) kinase (Q8NEB9 whole entry): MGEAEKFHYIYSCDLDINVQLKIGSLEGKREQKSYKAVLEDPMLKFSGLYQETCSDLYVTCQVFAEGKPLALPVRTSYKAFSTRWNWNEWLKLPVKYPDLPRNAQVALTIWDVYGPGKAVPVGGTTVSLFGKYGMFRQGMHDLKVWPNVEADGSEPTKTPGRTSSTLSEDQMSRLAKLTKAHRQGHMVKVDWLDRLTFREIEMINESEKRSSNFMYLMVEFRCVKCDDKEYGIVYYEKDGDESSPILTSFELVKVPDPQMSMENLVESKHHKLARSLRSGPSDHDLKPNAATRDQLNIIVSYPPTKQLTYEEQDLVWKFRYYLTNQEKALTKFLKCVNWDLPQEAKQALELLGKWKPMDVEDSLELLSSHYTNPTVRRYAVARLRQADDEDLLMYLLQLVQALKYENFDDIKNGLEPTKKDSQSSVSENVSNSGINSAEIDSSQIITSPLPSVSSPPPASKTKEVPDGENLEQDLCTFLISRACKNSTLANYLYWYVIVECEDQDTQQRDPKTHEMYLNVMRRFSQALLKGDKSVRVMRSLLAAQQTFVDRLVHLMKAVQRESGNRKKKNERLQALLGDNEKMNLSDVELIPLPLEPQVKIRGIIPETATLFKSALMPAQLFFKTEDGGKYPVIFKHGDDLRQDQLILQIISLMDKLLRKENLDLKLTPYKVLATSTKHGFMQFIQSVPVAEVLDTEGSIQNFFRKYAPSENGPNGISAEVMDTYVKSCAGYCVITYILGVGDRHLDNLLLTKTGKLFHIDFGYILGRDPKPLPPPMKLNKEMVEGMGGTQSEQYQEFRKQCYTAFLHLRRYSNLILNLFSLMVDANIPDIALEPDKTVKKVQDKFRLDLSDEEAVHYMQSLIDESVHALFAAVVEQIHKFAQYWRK
Description: The PI3KC3 (hVPS34) kinase reactions utilize ATP and produce ADP as a byproduct. The ADP production is quantified by ADP-Glo luminescence detection. The PI3KC3 (hVPS34) kinase assay was performed by Reaction Biology Corp. (Malvern, Pa.).
This was a 3-step reaction: First, the kinase reaction with lipid substrate was carried out in the presence of ATP. The reaction was then quenched, and the remaining ATP depleted with ADP-Glo™ reagent. Finally, the ADP was converted to ATP, which is measured using a luciferase/luciferin reaction. The luminescence was converted into μM ADP production based on ADP standard curves. The nonlinear regression to obtain the standard curve and IC50 values were performed using Graphpad Prism software.
The substrate (Phosphatidylinositol (PI): Phosphatidylserine (PS)) was added to freshly prepared reaction buffer (40 mM Tris-HCl (pH7.5), 3 μM Orthovanadate, 20 mM MgCl2, 2 mM DTT, 0.05% CHAPS, 1% DMSO). The PI3KC3 (hVPS34) kinase was delivered into the substrate solution with gentle mixing. Compounds were delivered in 100% DMSO into the kinase reaction mixture by Acoustic technology (Echo550; nanoliter range). The reaction was incubated for 20 min at room temperature. ATP was delivered into the reaction mixture to initiate the reaction. After incubating the mixture for 60 min at 30° C., the reaction was quenched with ADP-Glo reagent (Promega ADP Glo Kinase Assay kit #V9102) and incubated for 40 min at room temperature. Detection mixture (Promega ADP Glo Kinase Assay kit #V9102) was added and the reaction was incubated for 30 minutes. Luminescence was measured.

Sequence of PI3Kα (P42336 whole entry): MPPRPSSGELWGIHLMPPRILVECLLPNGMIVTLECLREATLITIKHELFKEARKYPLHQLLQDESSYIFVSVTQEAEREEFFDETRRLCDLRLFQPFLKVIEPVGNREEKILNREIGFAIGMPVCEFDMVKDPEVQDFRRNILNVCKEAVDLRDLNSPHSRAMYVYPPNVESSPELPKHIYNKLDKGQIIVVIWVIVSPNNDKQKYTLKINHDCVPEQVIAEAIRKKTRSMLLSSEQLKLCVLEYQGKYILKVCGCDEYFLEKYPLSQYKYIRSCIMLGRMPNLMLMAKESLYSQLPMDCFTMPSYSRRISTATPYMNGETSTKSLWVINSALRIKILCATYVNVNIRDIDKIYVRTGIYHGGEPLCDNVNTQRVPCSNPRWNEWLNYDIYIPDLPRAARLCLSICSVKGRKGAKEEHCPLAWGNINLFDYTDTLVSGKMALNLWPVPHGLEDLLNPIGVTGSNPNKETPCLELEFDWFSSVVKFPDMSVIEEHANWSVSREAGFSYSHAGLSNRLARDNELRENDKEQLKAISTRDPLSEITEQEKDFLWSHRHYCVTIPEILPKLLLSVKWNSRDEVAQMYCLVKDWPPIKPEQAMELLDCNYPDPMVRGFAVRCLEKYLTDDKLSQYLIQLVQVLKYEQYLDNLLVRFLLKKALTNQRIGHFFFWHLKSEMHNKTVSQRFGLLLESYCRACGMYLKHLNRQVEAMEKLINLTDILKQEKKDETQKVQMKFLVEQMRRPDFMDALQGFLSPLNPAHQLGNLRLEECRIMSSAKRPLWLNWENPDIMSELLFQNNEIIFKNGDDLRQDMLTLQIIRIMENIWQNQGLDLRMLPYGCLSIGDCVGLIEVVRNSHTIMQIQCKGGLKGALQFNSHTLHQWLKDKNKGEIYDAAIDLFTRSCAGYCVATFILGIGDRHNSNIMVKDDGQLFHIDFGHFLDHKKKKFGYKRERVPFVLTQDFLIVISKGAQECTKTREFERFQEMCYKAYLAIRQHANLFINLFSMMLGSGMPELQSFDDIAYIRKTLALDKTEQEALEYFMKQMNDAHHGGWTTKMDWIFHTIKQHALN
Sequence of PI3Kα (P27986 whole entry partner): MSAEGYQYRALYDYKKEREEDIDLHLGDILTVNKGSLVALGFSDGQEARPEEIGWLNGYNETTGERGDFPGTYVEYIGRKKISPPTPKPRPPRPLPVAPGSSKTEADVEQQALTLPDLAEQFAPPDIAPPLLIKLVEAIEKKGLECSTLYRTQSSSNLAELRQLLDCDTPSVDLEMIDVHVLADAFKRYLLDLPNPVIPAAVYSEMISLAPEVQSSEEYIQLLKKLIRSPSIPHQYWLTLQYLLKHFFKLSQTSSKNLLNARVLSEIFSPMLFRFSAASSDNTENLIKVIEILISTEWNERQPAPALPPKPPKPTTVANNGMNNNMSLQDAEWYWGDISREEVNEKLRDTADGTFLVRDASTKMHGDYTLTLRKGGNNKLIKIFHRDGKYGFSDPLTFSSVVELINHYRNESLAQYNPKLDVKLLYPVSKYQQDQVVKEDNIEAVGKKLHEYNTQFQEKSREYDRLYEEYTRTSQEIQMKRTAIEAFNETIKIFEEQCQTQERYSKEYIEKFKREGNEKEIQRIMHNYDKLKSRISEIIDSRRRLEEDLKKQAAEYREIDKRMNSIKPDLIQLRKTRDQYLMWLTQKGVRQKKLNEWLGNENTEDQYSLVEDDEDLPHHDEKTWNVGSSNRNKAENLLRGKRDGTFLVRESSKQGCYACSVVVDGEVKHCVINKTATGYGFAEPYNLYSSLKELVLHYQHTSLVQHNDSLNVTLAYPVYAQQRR

IC50 [1] [nM] | IC50 [2] [nM] | SMILES
750 | 3800 | Nc1ncc(-c2cc(N3CCOCC3)cc(S(=O)(=O)[C@@H]3CCOC3)c2)s1 [Example 1, (R)-5-(3-morpholino-5-((tetrahydrofuran-3-yl)sulfonyl)phenyl)thiazol-2-amine]
740 | 2100 | Nc1nc(C(F)(F)F)c(-c2cc(N3CCOCC3)cc(S(=O)(=O)[C@@H]3CCOC3)c2)s1 [Example 2, (R)-5-(3-morpholino-5-((tetrahydrofuran-3-yl)sulfonyl)phenyl)-4-(trifluoromethyl)thiazol-2-amine]
2200 | 1600 | Nc1nnc(-c2cc(N3CCOCC3)cc(S(=O)(=O)c3ccccc3)c2)s1 [Example 3, 5-(3-morpholino-5-(phenylsulfonyl)phenyl)-1,3,4-thiadiazol-2-amine]
11200 | 2200 | Nc1nsc(-c2cc(N3CCOCC3)cc(S(=O)(=O)c3ccccc3)c2)n1 [Example 4, 5-(3-morpholino-5-(phenylsulfonyl)phenyl)-1,2,4-thiadiazol-3-amine]
502 | 81 | Nc1ncc(-c2cc(S(=O)(=O)c3ccccc3)cc(N3CCOCC3)n2)s1 [Example 5, 5-(6-morpholino-4-(phenylsulfonyl)pyridin-2-yl)thiazol-2-amine]
5240 | 287 | Nc1nc(C(F)(F)F)c(-c2cc(S(=O)(=O)c3ccccc3)cc(N3CCOCC3)n2)s1 [Example 6, 5-(6-morpholino-4-(phenylsulfonyl)pyridin-2-yl)-4-(trifluoromethyl)thiazol-2-amine]
2300 | 19 | Cc1nc(N)sc1-c1cc(S(=O)(=O)c2ccccc2)cc(N2CCOCC2)n1 [Example 7, 4-methyl-5-(6-morpholino-4-(phenylsulfonyl)pyridin-2-yl)thiazol-2-amine]
3420 | 150 | Nc1ncc(-c2cc(Oc3ccccc3)cc(N3CCOCC3)n2)s1 [Example 8, 5-(6-morpholino-4-phenoxypyridin-2-yl)thiazol-2-amine]
